Experimental data published in ChEMBL document CHEMBL5096210, “Discovery of Betulinic Acid Derivatives as Potent Intestinal Farnesoid X Receptor Antagonists to Ameliorate Nonalcoholic Steatohepatitis” (J Med Chem, 2022).
Activity calls are given as the source filed them. The rule behind the calls is not given here.

How the values were obtained:
[1] = target: T1, Bile acid receptor (Mus musculus) (UniProt Q60641); test: In vivo antagonist activity against FXR in mouse assessed as stimulation of organoids growth in presence of FXR agonist; format: functional
T1 sequence (whole entry): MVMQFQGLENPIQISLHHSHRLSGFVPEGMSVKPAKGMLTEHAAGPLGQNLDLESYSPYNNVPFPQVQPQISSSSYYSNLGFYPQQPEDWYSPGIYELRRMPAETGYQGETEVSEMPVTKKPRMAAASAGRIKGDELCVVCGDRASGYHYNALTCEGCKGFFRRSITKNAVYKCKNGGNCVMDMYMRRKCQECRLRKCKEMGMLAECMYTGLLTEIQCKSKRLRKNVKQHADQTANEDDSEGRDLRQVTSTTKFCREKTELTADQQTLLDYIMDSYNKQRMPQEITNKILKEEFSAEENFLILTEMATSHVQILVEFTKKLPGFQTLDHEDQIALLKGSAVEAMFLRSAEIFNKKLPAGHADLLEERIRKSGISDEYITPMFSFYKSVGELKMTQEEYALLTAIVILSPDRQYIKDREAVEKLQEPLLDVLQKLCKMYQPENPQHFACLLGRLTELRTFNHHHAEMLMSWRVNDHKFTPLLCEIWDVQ

[2] = target: T1, Bile acid receptor (Mus musculus); test: In vivo antagonist activity against FXR in mouse assessed as reduction in Fgf15 level in presence of CDCA; format: functional
[3] = target: T1, Bile acid receptor (Mus musculus); test: In vivo antagonist activity against FXR in mouse assessed as reduction in Tgr5 expression in small intestine organoids; format: functional
[4] = Drug metabolism in C57BL6 mouse serum assessed as ((1S,3aS,5aR,5bR,7aR,9R,11aR,11bR,13aR,13bR)-9-hydroxy-1-isopropyl-5a,5b,8,8,11a-pentamethylicosahydro-1H-cyclopenta[a]chrysene-3a-carbonyl)glycine formation at 10 mg/kg, po administered as single dose measured after 2 hrs; format: ADME, organism-based; settings: in vivo
[5] = Drug metabolism in C57BL6 mouse liver assessed as ((1S,3aS,5aR,5bR,7aR,9R,11aR,11bR,13aR,13bR)-9-hydroxy-1-isopropyl-5a,5b,8,8,11a-pentamethylicosahydro-1H-cyclopenta[a]chrysene-3a-carbonyl)glycine formation at 10 mg/kg, po administered as single dose measured after 2 hrs; format: ADME, organism-based; settings: in vivo
Mus musculus [6] = test: Anti-NASH activity in GAN-induced […] mouse assessed as reduction in fat/lean index at 10 mg/kg, IG measured after 12 weeks; format: functional, organism-based
Mus musculus [7] = test: Anti-NASH activity in GAN-induced […] mouse assessed as reduction in random blood glucose level at 10 mg/kg measured upto 120 mins; format: functional, organism-based
Mus musculus [8] = test: Anti-NASH activity in GAN-induced mouse assessed as increase in glucose tolerance at 10 mg/kg; format: functional, organism-based
Mus musculus [9] = test: Anti-NASH activity in GAN-induced mouse assessed as increase in insulin sensitivity at 10 mg/kg; format: functional, organism-based
Mus musculus [10] = test: Anti-NASH activity in GAN-induced […] mouse assessed as increase in rectal temperature at 10 mg/kg; format: functional, organism-based
Mus musculus [11] = test: Anti-NASH activity in GAN-induced […] mouse assessed as upregulation of Ucp1 expression in inguinal white adipose tissue at 10 mg/kg; format: functional, organism-based
Mus musculus [12] = organism: Mus musculus; test: Anti-NASH activity in GAN diet-induced […] mouse assessed as reduction in Dgat2 level; format: functional, organism-based
Mus musculus [13] = organism: Mus musculus; test: Anti-NASH activity in GAN diet-induced […] mouse assessed as reduction in liver index; format: functional, organism-based
Mus musculus [14] = organism: Mus musculus; test: Anti-NASH activity in GAN diet-induced […] mouse assessed as reduction in ALT level; format: functional, organism-based
Mus musculus [15] = organism: Mus musculus; test: Anti-NASH activity in GAN diet-induced […] mouse assessed as reduction in AST level; format: functional, organism-based
Mus musculus [16] = organism: Mus musculus; test: Anti-NASH activity in GAN diet-induced […] mouse assessed as decrease in hydroxyproline in liver; format: functional, organism-based
Liver [17] = test: Anti-NASH activity in GAN diet-induced […] mouse liver assessed as reduction in hepatocyte fat by H and E staining based analysis; format: functional, cell-based
Liver [18] = test: Anti-NASH activity in GAN diet-induced […] mouse liver assessed as reduction in hepatocyte collagen deposition by H and E staining based analysis; format: functional, cell-based
Liver [19] = test: Anti-NASH activity in GAN diet-induced […] mouse liver assessed as reduction in hepatocyte ballooning by Oil Red O staining based assay; format: functional, cell-based
Liver [20] = test: Anti-NASH activity in GAN diet-induced […] mouse liver assessed as reduction in hepatocyte collagen deposition by Oil Red O staining based assay; format: functional, cell-based
Liver [21] = test: Anti-NASH activity in GAN diet-induced […] mouse liver assessed as reduction in hepatocyte ballooning by Sirius red staining based analysis; format: functional, cell-based
Liver [22] = test: Anti-NASH activity in GAN diet-induced […] mouse liver assessed as reduction in hepatocyte fat by Sirius red staining based analysis; format: functional, cell-based
Mus musculus [23] = organism: Mus musculus; test: Anti-NASH activity in GAN diet-induced […] mouse assessed as reduction in Fabp2 mRNA expression level; format: functional, organism-based
Mus musculus [24] = organism: Mus musculus; test: Anti-NASH activity in GAN diet-induced […] mouse assessed as reduction in mature Il1beta; format: functional, organism-based
Mus musculus [25] = organism: Mus musculus; test: Anti-NASH activity in GAN diet-induced […] mouse assessed as reduction in Tgf-beta level; format: functional, organism-based
Mus musculus [26] = organism: Mus musculus; test: Anti-NASH activity in GAN diet-induced […] mouse assessed as reduction in Col1a1 level; format: functional, organism-based
Mus musculus [27] = organism: Mus musculus; test: Anti-NASH activity in GAN diet-induced […] mouse assessed as reduction in Col3a1 level; format: functional, organism-based
Mus musculus [28] = organism: Mus musculus; test: Anti-NASH activity in GAN diet-induced […] mouse assessed as suppression of FXR expression; format: functional, organism-based
Mus musculus [29] = organism: Mus musculus; test: Anti-NASH activity in GAN diet-induced […] mouse assessed as suppression of Shp expression; format: functional, organism-based
Mus musculus [30] = organism: Mus musculus; test: Anti-NASH activity in GAN diet-induced […] mouse assessed as suppression of O-sta expression; format: functional, organism-based
Mus musculus [31] = organism: Mus musculus; test: Anti-NASH activity in GAN diet-induced […] mouse assessed as upregulation of Cyp7a1 mRNA expression in liver; format: functional, organism-based
Mus musculus [32] = organism: Mus musculus; test: Anti-NASH activity in GAN diet-induced […] mouse assessed as upregulation CYP7A1 protein by Western blot analysis; format: functional, organism-based
Mus musculus [33] = test: Anti-NASH activity in GAN diet-induced […] mouse assessed as reduction of dihydroceramide level in serum administered orally for 12 weeks; format: functional, organism-based; settings: route po
Mus musculus [34] = test: Anti-NASH activity in HFMCD diet-induced […] mouse assessed as reduction in hepatic TG concentration at 10 to 30 mg/kg, po for 4 weeks; format: functional, organism-based; settings: dose 10-30 mg/kg
Mus musculus [35] = organism: Mus musculus; test: Anti-NASH activity in GAN diet-induced […] mouse assessed as increase in hepatic bile acid synthesis; format: functional, organism-based
Mus musculus [36] = organism: Mus musculus; test: Anti-NASH activity in GAN diet-induced […] mouse assessed as bile acid level in gall bladder; format: functional, organism-based

Compound: CCCC(=O)O[C@@H]1CC[C@]2(C)[C@H]3CC[C@@H]4[C@H]5[C@H](C(C)C)CC[C@]5(C(=O)NCC(=O)O)CC[C@@]4(C)[C@]3(C)CC[C@H]2C1(C)C
- Activity [1]: Active
- Activity [2]: Active
- Activity [3]: Active
- Drug metabolism [4]: Metabolite_Detected
- Drug metabolism [5]: Metabolite_Detected
- Activity (Mus musculus [6]): Active
- Activity (Mus musculus [7]): Active
- Activity (Mus musculus [8]): Active
- Activity (Mus musculus [9]): Active
- Activity (Mus musculus [10]): Active
- Activity (Mus musculus [11]): Active
- Activity (Mus musculus [12]): Active
- Activity (Mus musculus [13]): Active
- Activity (Mus musculus [14]): Active
- Activity (Mus musculus [15]): Active
- Activity (Mus musculus [16]): Active
- Activity (Liver [17]): Active
- Activity (Liver [18]): Active
- Activity (Liver [19]): Active
- Activity (Liver [20]): Active
- Activity (Liver [21]): Active
- Activity (Liver [22]): Active
- Activity (Mus musculus [23]): Active
- Activity (Mus musculus [24]): Active
- Activity (Mus musculus [25]): Active
- Activity (Mus musculus [26]): Active
- Activity (Mus musculus [27]): Active
- Activity (Mus musculus [28]): Active
- Activity (Mus musculus [29]): Active
- Activity (Mus musculus [30]): Active
- Activity (Mus musculus [31]): Active
- Activity (Mus musculus [32]): Active
- Activity (Mus musculus [33]): Active
- Activity (Mus musculus [34]): Active
- Activity (Mus musculus [35]): Active
- Activity (Mus musculus [36]): Active
